{
  "source": "patent US8420605B2",
  "about": "“Hydrogel compositions” (The University of Strathclyde, priority 2005, dated 2013)",
  "key": {"[1]": {"test_system": "bovine chondrocytes", "assay": "Culture of chondrocytes on/in hydrogel scaffold (proliferation and retention of phenotype)", "assay_type": "cell-based", "settings": "cell culture of up to 7 days", "experimental": "Bovine chondrocytes were isolated from cartilage of the proximal side of the metacarpalphalangeal joint, washed in PBS and incubated overnight in Dulbeccos Modified Eagles Medium (DMEM) supplemented with 10% foetal calf serum, 100 units ml^−1 penicillin/streptomycin and 0.85 mM ascorbic acid. The cartilage was finely chopped and incubated with pronase type E (700 units ml^−1) (BDH Ltd., Poole, UK) in medium for 2 h followed by collagenase type 1a (300 units ml^−1) (SIGMA-ALDRICH Co. Ltd., Poole, UK) in medium for 2 h. The cell suspension was centrifuged at 1500 rpm for 5 min to pellet the cells. The cells were washed twice in medium and seeded directly onto the peptide scaffolds (and tissue culture plastic control) or encapsulated within the scaffolds during the gelation stage at a cell density of 5×10^5 ml^−1 in medium. The cultures were maintained in an incubator at 37° C. with a humidified atmosphere of 5% CO2 for up to 4 weeks. Chondrocytes were used up to passage 5.\nFinally, all three gels prepared (ie. entries 1, 2 and 3) were tested for their ability to support proliferation and retention of phenotype of bovine chondrocytes. […]\nThe rounded cell shape is the typical phenotype for chondrocytes. […] Two-photon fluorescence microscopy was used to observe samples stained with DAPI, a fluorescent nucleic acid stain that enables visualisation of cell nuclei."}, "[2]": {"test_system": "Human dermal fibroblasts", "assay": "Cell phenotype and size comparison in RGD/RGE-containing hydrogels (inverted optic microscope)", "assay_type": "cell-based", "settings": "after 24 hours, 3D culture, 1 mM/L RGD or RGE peptide with Fmoc-Phe-Phe-OH", "experimental": "Fmoc-SEQ. ID. NO. 1-OH (Fmoc-SEQ. ID. NO. 1) adhesion motifs were introduced to tackle the issue of un-spreaded cells in Fmoc-Phe-Phe-OH gels therefore to induce spreading and focal adhesion of dermal fibroblasts in these self-assembled peptide hydrogels. Fmoc-Phe-Phe-OH and Fmoc-Phe-Phe-OH+Fmoc-SEQ. ID. NO. 2-OH (Fmoc-SEQ. ID. NO. 2) combination were set as comparisons.\n0.0014 grams of Fmoc-SEQ. ID. NO. 1or Fmoc-SEQ. ID. NO. 2(1 mM/L in later hydrogels), were weighed and mixed with 0.0107 grams Fmoc-Phe-Phe-OH respectively into glass vials, and 0.0107 grams Fmoc-Phe-Phe-OH alone was weighed as well. The above peptide and peptide mixtures were sterilized for 30 minutes by an ultraviolet light exposure with bottles of distilled water, filtered NaOH (Sodium Hydroxide, 0.5 M/L), filtered HCl (Hydrochloric Acid, 0.5 M/L), and relevant apparatus (spatulas, pipettes, Vortex). 2 mL of the sterile distilled water was then added into each glass vial of Fmoc-Phe-Phe-OH, Fmoc-Phe-Phe-OH+Fmoc-SEQ. ID. NO. 1, and Fmoc-Phe-Phe-OH+Fmoc-SEQ. ID. NO. 2, and the mixtures were vortexed for a few seconds to create suspensions. […] The basic peptide solutions (pH around 10) were finally neutralized to pH 7 by dropwise addition of HCl and pH values were monitored by a pH meter with a micro-probe. […]"}},
  "note": "Peptide text beside a SMILES is read from it. * marks the point of attachment. Fmoc = O=C(OCC1c2ccccc2-c2ccccc21)*",
  "data": [
    {"molecule": "O=C(N[C@@H](Cc1ccccc1)C(=O)N[C@@H](Cc1ccccc1)C(=O)O)OCC1c2ccccc2-c2ccccc21", "note": "[Entry 1, Fmoc-Phe-Phe-OH] (Fmoc-Phe-Phe-OH)", "values": [
      {"measurement": "retention of morphological phenotype and proliferation of chondrocytes", "setting": "[1]", "result": "cell morphological phenotype is retained"},
      {"measurement": "average cell size", "setting": "[2]", "result": "around 20 microns"}
    ]}
  ]
}
